Reference: paper PMC9699089 (Pathogens, 2022)
Read-outs that look alike come from different tables or passages of the source.

Legend:
[1] = test system: Pf8 (DNA, G4) GGGTTCAGGGTTCAGGGTTCAGGG; test: native ESI-MS; conditions: 1 mM KCl, 100 mM TMAA, 10 µM oligonucleotide, 20 µM ligand
[2] = test system: 24TTG (DNA, G4) TTGGGTTAGGGTTAGGGTTAGGGA; test: native ESI-MS; conditions: 1 mM KCl, 100 mM TMAA, 10 µM oligonucleotide, 20 µM ligand
[3] = test system: FdxT (DNA, hairpin, hexaethyleneglycol linker between position 10 and 11) TATAGCTATATATAGCTATA; test: FRET melting; conditions: 10 mM KCl, 90 mM LiCl; 10 mM lithium cacodylate pH 7.2; 0.2 µM oligonucleotide, 2 µM compound
[4] = test system: Pf1 (DNA, G4) GGGTTTAGGGTTTAGGGTTTAGGG; test: native ESI-MS; conditions: 1 mM KCl; 100 mM TMAA; 10 µM oligonucleotide, 20 µM ligand; site 1 of 2 (Kd2 37 µM)
[5] = test system: Plasmodium falciparum CQ-resistant strain W2; test: In vitro antiplasmodial activity, SYBR Green I fluorescence-based method, strain W2; type: cell-based; conditions: read-out: P. falciparum Strains IC50 Values W2
Description: (§1) The in vitro antiplasmodial activities were tested over concentrations ranging from 39 nM to 40 µM against culture-adapted Plasmodium falciparum reference strains 3D7 and W2. […] These two strains are obtained from the collection of the National Museum of Natural History (Paris, France). The parasites were cultivated in RPMI medium (Sigma Aldrich, Lyon, France) supplemented with 0.5% Albumax I (Life Technologies Corporation, Paisley, UK), hypoxanthine (Sigma Aldrich), and gentamicin (Sigma Aldrich) with human erythrocytes and were incubated at 37 °C in a candle jar, as described previously. The P. falciparum drug susceptibility test was carried out in 96-well flat bottom sterile plates in a final volume of 250 µL. After 48 h incubation period with the drugs, quantities of DNA in treated and control cultures of parasites in human erythrocytes were quantified using the SYBR Green I (Sigma Aldrich) fluorescence-based method. Briefly, after incubation, plates were frozen at -20 °C until use. Plates were then thawed for 2 h at room temperature, and 100 µL of each homogenized culture was transferred to a well of a 96-well flat bottom sterile black plate (Nunc, Inc.) that contained 100 µL of the SYBR Green I lysis buffer (2xSYBR Green, 20 mM Tris base pH 7.5, 5 mM EDTA, 0.008% w/v saponin, 0.08% w/v Triton X-100). […] Plates were incubated for 1 h at room temperature and then read on a fluorescence plate reader (Tecan, Austria) using excitation and emission wavelengths of 485 and 535 nm, respectively.

[6] = test system: Plasmodium falciparum CQ-sensitive strain 3D7; test: In vitro antiplasmodial activity, SYBR Green I fluorescence-based method, strain 3D7; type: cell-based; conditions: read-out: P. falciparum Strains IC50 Values 3D7
Description: as §1

[7] = test system: Plasmodium telomeric sequence FPf1T G-quadruplex; test: FRET melting assay, FPf1T; type: binding, Plasmodium falciparum; conditions: tested at 1 μM, oligonucleotide 0.2 μM, K+ conditions
[8] = test system: Plasmodium telomeric sequence FPf8T G-quadruplex; test: FRET melting assay, FPf8T; type: binding, Plasmodium falciparum; conditions: tested at 1 μM, oligonucleotide 0.2 μM, K+ conditions
[9] = test system: human telomeric sequence F21T G-quadruplex; test: FRET melting assay, F21T; type: binding; conditions: tested at 1 μM, oligonucleotide 0.2 μM, K+ conditions
[10] = test system: L. donovani (MHOM/IN/00/DEVI) promastigotes; test: In vitro antileishmanial activity on promastigotes, MTT assay; type: cell-based; conditions: Leishmania donovani, 72 h incubation, mean +/- SD of three independent experiments
Description: L. donovani (MHOM/IN/00/DEVI) used in this study was provided by the CNR Leishmania (Montpellier, France). The effects of the tested compounds on the growth of L. donovani (MHOM/IN/00/DEVI) promastigotes were assessed by MTT assay. Briefly, promastigotes in log-phase in Schneider’s medium supplemented with 20% fetal calf serum (FCS), 2 mM L-glutamine and antibiotics (100 U/mL penicillin and 100 µg/mL streptomycin), were incubated at an average density of 10^6 parasites/mL in sterile 96-well plates with various concentrations of compounds previously dissolved in DMSO (final concentration less than 0.5% v/v), in duplicate. […] Duplicate assays were performed for each sample. After the 72 h incubation period at 27 °C, parasite metabolic activity was determined. Each well was microscopically examined for precipitate formation. To each well was added 10 µL of 10 mg/mL MTT [3-(4,5-dimethylthiazol-2-yl)-2,5-diphenyltetrazolium bromide)] solution followed by 4 h incubation time. The enzyme reaction was stopped by addition of 100 µL of 50% isopropanol/10% sodium dodecyl sulfate. Plates were vigorously shaken (300 rpm) for 10 min, and the absorbance was measured at 570 nm with 630 nm as reference wavelength in a BIOTEK ELx808 Absorbance Microplate Reader (Agilent Technologies, Les Ulis, France). […] IC50 of the parasite’s growth (half maximal inhibitory concentration or IC50 values) were then calculated from the obtained experimental results using a previously described regression program. IC50 values were calculated from three independent experiments.

[11] = test system: T. brucei brucei AnTat 1.9; test: In vitro antitrypanosomal activity, Alamar Blue assay; type: cell-based, Trypanosoma brucei brucei; conditions: Trypanosoma brucei, slender bloodstream trypomastigotes, AnTat 1.9 strain; mean +/- SD of three independent experiments; read-out: Trypanosoma brucei brucei IC50 Values Trypanos Antat 1.9
Description: The effects of the tested compounds on the growth of T. brucei brucei were assessed using an Alamar Blue® assay described by Räz et al. T. brucei brucei AnTat 1.9 ([…], Belgium) was cultured in MEM with Earle's salts, supplemented according to the protocol of Baltz et al. […] All doses were tested in duplicate. Appropriate controls treated with solvents 0.9% NaCl or DMSO or with suramin, pentamidine, eflornithine, and fexinidazole (reference drugs purchased from Sigma Aldrich and Fluorochem, UK) were added to each set of experiments. After 69 h incubation period at 37 °C, 10 μL of the viability marker Alamar Blue (Fisher) was added to each well, and the plates were incubated for 5 h. The plates were read in a PerkinElmer ENSPIRE (Germany) microplate reader using an excitation wavelength of 530 nm and an emission wavelength of 590 nm.

[12] = Cytotoxicity evaluation, MTT assay; type: cell-based, human; conditions: human
Description: These cells are a commonly used human hepatocarcinoma-derived cell line that has characteristics similar to those of primary hepatocytes. These cells express many hepatocyte-specific metabolic enzymes, thus enabling the cytotoxicity of tested product metabolites to be evaluated. […] Duplicate assays were performed for each sample. Each well was microscopically examined for precipitate formation before the medium was aspirated from the wells. After aspiration, 100 µL of MTT solution (0.5 mg/mL in medium without FCS) were then added to each well. […] The MTT solution was removed, and DMSO (100 µL) was added to dissolve the resulting blue formazan crystals. Plates were shaken vigorously (300 rpm) for 5 min. The absorbance was measured at 570 nm with 630 nm as reference wavelength in a BIO-TEK ELx808 Absorbance Microplate Reader. DMSO was used as blank and doxorubicin (Sigma Aldrich) as positive control. Cell viability was calculated as percentage of control (cells incubated without compound). The CC50 was determined from the dose-response curve using TableCurve 2D V5.0 software (Systat Software, Palo Alto, CA, USA).

[13] = test system: Plasmodium telomeric sequence FPf1T G-quadruplex; test: FRET melting assay, FPf1T; type: binding, Plasmodium falciparum; conditions: compound 2 μM, oligonucleotide 0.2 μM, K+ conditions
Description: (§2) These were performed with dual-labeled oligonucleotides mimicking the Plasmodium telomeric sequences FPf1T [FAM-5′(GGGTTTA)3-GGG3′-TAMRA] and FPf8T [FAM-5′(GGGTTCA)3GGG3′-TAMRA], the Trypanosoma 9 and 11 chromosomic sequence FTrypBT (also named FEBR1T) [FAM-5′[…]3′-TAMRA], the human telomeric sequence F21T [FAM-(GGGTTA)3-GGG3′-TAMRA] and the human duplex sequence FdxT [FAM5′-[…]-hexaethyleneglycol-[…]3′-TAMRA] [27, 31, 47]. The oligonucleotides were pre-folded in 10 mM lithium cacodylate buffer (pH 7.2), with 10 mM KCl and 90 mM LiCl (K^+ condition). The FAM emissions were recorded at 516 nm using a 492-nm excitation wavelength in the absence and presence of a single compound as a function of temperature (25 to 95 °C) in 96-well microplates using a Stratagene MX3000P real-time PCR device at a rate of 1 °C∙min-1. Data were normalized between 0 and 1, and the required temperature for half-denaturation of oligonucleotides corresponding to the emission value of 0.5 was taken as the Tm. Each experiment was performed in duplicate with 0.2 µM of labeled oligonucleotide and 2 µM of compound under K^+ condition. For each compound, three independent experiments were carried out.

[14] = test system: Plasmodium telomeric sequence FPf8T G-quadruplex; test: FRET melting assay, FPf8T; type: binding, Plasmodium falciparum; conditions: compound 2 μM, oligonucleotide 0.2 μM, K+ conditions
Description: as §2

[15] = test system: Trypanosoma 9 and 11 chromosomic sequence FTrypBT (FEBR1T) G-quadruplex; test: FRET melting assay, FtrypBT; type: binding, Trypanosoma brucei brucei; conditions: compound 2 μM, oligonucleotide 0.2 μM, K+ conditions
Description: as §2

[16] = test system: human telomeric sequence F21T G-quadruplex; test: FRET melting assay, F21T; type: binding; conditions: compound 2 μM, oligonucleotide 0.2 μM, K+ conditions
Description: as §2

[17] = test system: human duplex sequence FdxT; test: FRET melting assay, duplex control FdxT; type: binding; conditions: compound 2 μM, oligonucleotide 0.2 μM, K+ conditions
Description: as §2

[18] = CQ-resistant strain W2, 48 h incubation, mean of three independent experiments
[19] = CQ-sensitive strain 3D7, 48 h incubation, mean of three independent experiments

## CN(C)CCCCNCc1cc(-c2ccccc2)c2ccc3c(-c4ccccc4)cc(CNCCCCN(C)C)nc3c2n1
[1]; site 1 of 2 (Kd2 50 µM)
  Kd1: 3 µM
[2]; site 1 of 2 (Kd2 28 µM)
  Kd1: 44 µM

## c1ccc(-c2cc(CNCCCN3CCCC3)nc3c2ccc2c(-c4ccccc4)cc(CNCCCN4CCCC4)nc23)cc1
[3]
  ΔTm: 0.7 ± 0.2 °C
[4]
  Kd1: 10 µM
[1]; site 1 of 2 (Kd2 59 µM)
  Kd1: 2 µM
[2]; site 1 of 2 (Kd2 18 µM)
  Kd1: 34 µM

## CCN(CC)CCCC(C)Nc1ccnc2cc(Cl)ccc12 (centres unmarked) [CQ, chloroquine]
[5]; W2, 48 h
  IC50: 400 ± 40 nM
[6]; 3D7, 48 h
  IC50: 110 ± 10 nM
[7]
  ΔTm FPf1T: 1.9 °C
[8]
  ΔTm FPf8T: 2.4 °C
[9]
  ΔTm F21T: 2.4 °C

## c1ccc(-c2cc(CNCCCN3CCCCC3)nc3c2ccc2c(-c4ccccc4)cc(CNCCCN4CCCCC4)nc23)cc1 [Compound 1k]
[5]; [18]
  IC50: 1650 ± 360 nM
[6]; [19]
  IC50: 3180 ± 680 nM
[10]
  IC50: > 12500 nM
[11]
  IC50: 770 ± 100 nM
[12]
  CC50 at 72 h: 4290 ± 520 nM
[13]
  ΔTm FPf1T: 12.8 °C
[14]
  ΔTm FPf8T: 14.0 °C
[15]
  ΔTm FtrypBT: 8.3 °C
[16]
  ΔTm F21T: 12.0 °C
[17]
  ΔTm FdxT: 0.4 °C

## c1ccc(-c2cc(CNCCc3cccnc3)nc3c2ccc2c(-c4ccccc4)cc(CNCCc4cccnc4)nc23)cc1 [Compound 1n]
[5]; [18]
  IC50: 2540 ± 360 nM
[6]; [19]
  IC50: 710 ± 110 nM
[10]
  IC50: 2670 ± 800 nM
[11]
  IC50: 430 ± 30 nM
[12]
  CC50 at 72 h: 3100 ± 190 nM
[13]
  ΔTm FPf1T: 2.9 °C
[14]
  ΔTm FPf8T: 5.3 °C
[15]
  ΔTm FtrypBT: 5.2 °C
[16]
  ΔTm F21T: 4.6 °C
[17]
  ΔTm FdxT: −0.3 °C

## c1ccc(-c2cc(CNCCc3ccncc3)nc3c2ccc2c(-c4ccccc4)cc(CNCCc4ccncc4)nc23)cc1 [Compound 1o]
[5]; [18]
  IC50: 1870 ± 580 nM
[6]; [19]
  IC50: 730 ± 190 nM
[10]
  IC50: 2690 ± 600 nM
[11]
  IC50: 210 ± 10 nM
[12]
  CC50 at 72 h: 19100 ± 2110 nM
[13]
  ΔTm FPf1T: 2.9 °C
[14]
  ΔTm FPf8T: 5.2 °C
[15]
  ΔTm FtrypBT: 5.3 °C
[16]
  ΔTm F21T: 3.9 °C
[17]
  ΔTm FdxT: −0.3 °C

## c1ccc(-c2cc(CNCCCc3ccncc3)nc3c2ccc2c(-c4ccccc4)cc(CNCCCc4ccncc4)nc23)cc1 [Compound 1p]
[5]; [18]
  IC50: 145 ± 40 nM
[6]; [19]
  IC50: 1020 ± 350 nM
[10]
  IC50: > 12500 nM
[11]
  IC50: 650 ± 50 nM
[12]
  CC50 at 72 h: 3040 ± 190 nM
[13]
  ΔTm FPf1T: 3.5 °C
[14]
  ΔTm FPf8T: 3.9 °C
[15]
  ΔTm FtrypBT: 3.7 °C
[16]
  ΔTm F21T: 3.6 °C
[17]
  ΔTm FdxT: −1.1 °C

## OC(c1cc(C(F)(F)F)nc2c(C(F)(F)F)cccc12)C1CCCCN1 (centres unmarked) [MQ, mefloquine]
[5]; [18]
  IC50: 16 ± 2 nM
[6]; [19]
  IC50: 60 ± 3 nM
[7]
  ΔTm FPf1T: 3.1 °C
[8]
  ΔTm FPf8T: 6.6 °C
[9]
  ΔTm F21T: 2.6 °C
